Measurements reported in patent US20010021697A1, “METHODS AND COMPOSITIONS FOR THE TREATMENT OF MAMMALIAN INFECTIONS EMPLOYING MEDICAMENTS COMPRISING HYMENOPTERA VENOM, PROTEINAGEOUS OR POLYPEPTIDE COMPONENTS THEREOF, OR ANALOGUES OF SUCH PROTEINACEOUS OR POLYPEPTIDE COMPONENTS” (priority 1987, published 2001).
Where two headings read alike, the source gives them in different places.

What was measured:
Type in all cases: cell-based
S. aureus #140A = system: S. aureus #140A
[1] = system: kanamycin resistant S. aureus; test: Checkerboard titration assay for synergy of honeybee venom with antibiotics (OD660 growth curves)
E. coli #G1880E = system: E. coli #G1880E

## CC1(C)S[C@@H]2[C@H](NC(=O)[C@H](N)c3ccccc3)C(=O)N2[C@H]1C(=O)O [AMP]
S. aureus #140A; AMP = 0.05, HBV = 0, T0
  MEAN A660: 0.013
S. aureus #140A; AMP = 0.05, HBV = 0, T2
  MEAN A660: 0.085
S. aureus #140A; AMP = 0.05, HBV = 0, T4
  MEAN A660: 0.355
S. aureus #140A; AMP = 0.05, HBV = 0, T6
  MEAN A660: 0.552
S. aureus #140A; AMP = 0.05, HBV = 0, T12
  MEAN A660: 0.736
S. aureus #140A; AMP = 0.05, HBV = 0, T24
  MEAN A660: 0.760
S. aureus #140A; AMP = 0.05, HBV = 0, TB
  MEAN A660: 0.689
S. aureus #140A; AMP = 0.1, HBV = 0, T0
  MEAN A66O: 0.013
S. aureus #140A; AMP = 0.1, HBV = 0, T2
  MEAN A66O: 0.085
S. aureus #140A; AMP = 0.1, HBV = 0, T4
  MEAN A66O: 0.257
S. aureus #140A; AMP = 0.1, HBV = 0, T6
  MEAN A66O: 0.248
S. aureus #140A; AMP = 0.1, HBV = 0, T8
  MEAN A66O: 0.155
S. aureus #140A; AMP = 0.1, HBV = 0, T12
  MEAN A66O: 0.095
S. aureus #140A; AMP = 0.1, HBV = 0, T24
  MEAN A66O: 0.347
S. aureus #140A; AMP = 0.2, HBV = 0, T0
  MEAN A660: 0.013
S. aureus #140A; AMP = 0.2, HBV = 0, T2
  MEAN A660: 0.085
S. aureus #140A; AMP = 0.2, HBV = 0, T4
  MEAN A660: 0.202
S. aureus #140A; AMP = 0.2, HBV = 0, T6
  MEAN A660: 0.112
S. aureus #140A; AMP = 0.2, HBV = 0, T8
  MEAN A660: 0.052
S. aureus #140A; AMP = 0.2, HBV = 0, T12
  MEAN A660: 0.037
S. aureus #140A; AMP = 0.2, HBV = 0, T24
  MEAN A660: 0.042
S. aureus #140A; AMP = 0.4, HBV = 0, T0
  MEAN A66O: 0.013
S. aureus #140A; AMP = 0.4, HBV = 0, T2
  MEAN A66O: 0.085
S. aureus #140A; AMP = 0.4, HBV = 0, T4
  MEAN A66O: 0.191
S. aureus #140A; AMP = 0.4, HBV = 0, T6
  MEAN A66O: 0.110
S. aureus #140A; AMP = 0.4, HBV = 0, T8
  MEAN A66O: 0.048
S. aureus #140A; AMP = 0.4, HBV = 0, T12
  MEAN A66O: 0.027
S. aureus #140A; AMP = 0.4, HBV = 0, T24
  MEAN A66O: 0.027
[1]; AMP = 0.05, HBV = 0, T0
  MEAN A660: 0.020
[1]; AMP = 0.05, HBV = 0, T2
  MEAN A660: 0.064
[1]; AMP = 0.05, HBV = 0, T4
  MEAN A660: 0.230
[1]; AMP = 0.05, HBV = 0, T6
  MEAN A660: 0.338
[1]; AMP = 0.05, HBV = 0, T8
  MEAN A660: 0.372
[1]; AMP = 0.05, HBV = 0, T12
  MEAN A660: 0.352
[1]; AMP = 0.05, HBV = 0, T24
  MEAN A660: 0.461
[1]; AMP = 0.1, HBV = 0, T0
  MEAN A660: 0.020
[1]; AMP = 0.1, HBV = 0, T2
  MEAN A660: 0.064
[1]; AMP = 0.1, HBV = 0, T4
  MEAN A660: 0.379
[1]; AMP = 0.1, HBV = 0, T6
  MEAN A660: 0.156
[1]; AMP = 0.1, HBV = 0, T8
  MEAN A660: 0.112
[1]; AMP = 0.1, HBV = 0, T12
  MEAN A660: 0.050
[1]; AMP = 0.1, HBV = 0, T24
  MEAN A660: 0.053
[1]; AMP = 0.2, HBV = 0, T0
  MEAN A660: 0.020
[1]; AMP = 0.2, HBV = 0, T2
  MEAN A660: 0.064
[1]; AMP = 0.2, HBV = 0, T4
  MEAN A660: 0.131
[1]; AMP = 0.2, HBV = 0, T6
  MEAN A660: 0.110
[1]; AMP = 0.2, HBV = 0, T8
  MEAN A660: 0.073
[1]; AMP = 0.2, HBV = 0, T12
  MEAN A660: 0.030
[1]; AMP = 0.2, HBV = 0, T24
  MEAN A660: 0.037
[1]; AMP = 0.4, HBV = 0, T0
  MEAN A660: 0.020
[1]; AMP = 0.4, HBV = 0, T2
  MEAN A660: 0.064
[1]; AMP = 0.4, HBV = 0, T4
  MEAN A660: 0.202
[1]; AMP = 0.4, HBV = 0, T6
  MEAN A660: 0.290
[1]; AMP = 0.4, HBV = 0, T8
  MEAN A660: 0.285
[1]; AMP = 0.4, HBV = 0, T12
  MEAN A660: 0.271
[1]; AMP = 0.4, HBV = 0, T24
  MEAN A660: 0.277
E. coli #G1880E; AMP = 0.5, HBV = 0, T0
  MEAN A660: 0.015
E. coli #G1880E; AMP = 0.5, HBV = 0, T2
  MEAN A660: 0.084
E. coli #G1880E; AMP = 0.5, HBV = 0, T4
  MEAN A660: 0.600
E. coli #G1880E; AMP = 0.5, HBV = 0, T6
  MEAN A660: 1.001
E. coli #G1880E; AMP = 0.5, HBV = 0, T8
  MEAN A660: 0.999
E. coli #G1880E; AMP = 0.5, HBV = 0, T12
  MEAN A660: 1.085
E. coli #G1880E; AMP = 0.5, HBV = 0, T24
  MEAN A660: 1.156
E. coli #G1880E; AMP = 1, HBV = 0, T0
  MEAN A660: 0.015
E. coli #G1880E; AMP = 1, HBV = 0, T2
  MEAN A660: 0.084
E. coli #G1880E; AMP = 1, HBV = 0, T4
  MEAN A660: 0.538
E. coli #G1880E; AMP = 1, HBV = 0, T6
  MEAN A660: 0.628
E. coli #G1880E; AMP = 1, HBV = 0, T8
  MEAN A660: 0.493
E. coli #G1880E; AMP = 1, HBV = 0, T12
  MEAN A660: 0.475
E. coli #G1880E; AMP = 1, HBV = 0, T24
  MEAN A660: 0.504
E. coli #G1880E; AMP = 2, HBV = 0, T0
  MEAN A660: 0.015
E. coli #G1880E; AMP = 2, HBV = 0, T2
  MEAN A660: 0.084
E. coli #G1880E; AMP = 2, HBV = 0, T4
  MEAN A660: 0.428
E. coli #G1880E; AMP = 2, HBV = 0, T12
  MEAN A660: 0.136
E. coli #G1880E; AMP = 2, HBV = 0, T24
  MEAN A660: 0.647
E. coli #G1880E; AMP = 4, HBV = 0, T0
  MEAN A660: 0.015
E. coli #G1880E; AMP = 4, HBV = 0, T2
  MEAN A660: 0.084
E. coli #G1880E; AMP = 4, HBV = 0, T4
  MEAN A660: 0.158
E. coli #G1880E; AMP = 4, HBV = 0, T6
  MEAN A660: 0.063
E. coli #G1880E; AMP = 4, HBV = 0, T12
  MEAN A660: 0.055
E. coli #G1880E; AMP = 4, HBV = 0, T24
  MEAN A660: 0.056
